From patent US9896447B2, “TrkA kinase inhibitors, compositions and methods thereof” (MERCK SHARP & DOHME CORP., priority 2013, dated 2018)

Molecular target: TrkA receptor (Homo sapiens (Human), UniProt P04629)
Experiment: DiscoverX PathHunter TrkA functional assay (U2OS cells, NGF stimulated)
Assay type: cell-based
Conditions: U2OS cells expressing TrkA-Prolink and Shc1-EA; compound 1 hour, then EC80 of NGF for 3 hours; luminescence
Description: TrkA functional activity was measured using a DiscoverX PathHunter assay. In this assay, U2OS cells are express TrkA receptor as a fusion with the weakly complementing fragment of B-galactosidase, which DiscoverX calls “Prolink (PK)”; additionally, Shc1 is fused with a larger fragment, which is called “Enzyme Acceptor (EA)”. Activation of the TrkA receptor, upon NGF addition, results in the kinase domain being phosphorylated, resulting in subsequent recruitment of Shc1-EA protein. That recruitment results in an active B-galactosidase enzyme that is detected by addition of a chemiluminescent substrate.
All reagents were purchased from DiscoverX, except for the receptor agonists (NGF, BDNF, NT3) which were purchased from Peprotech. Cells were expanded and frozen into cryovials (TrkA p75 @ passage 13, 1.5×10^7 cells/vial; TrkC p75 @ passage 11, 1.5×10^7 cells/vial in InVitrogen Recovery Cell Freezing media), and stored in the vapor phase of liquid nitrogen, and thawed immediately before use. Thawed cells were added to a 384-well plate (BD Falcon 384-well white/clear, TC surface 120 uL assay plates (353963), 20 uL of 0.375e6 cells/mL=>7500 cells/well), and allowed to incubate overnight. Compound (10 mM starting dose: 202.5 nL compound yielding 0.81% DMSO final in total assay volume and starting doses 81 uM) was added the following morning and allowed to incubate on cells for 1 hour. Then, 5 uL EC80 of agonist (NGF for TrkA; BDNF for TrkB; NT3 for TrkC) was added and allowed to incubate for 3 hours at room temperature. DiscoverX PathHunter detection reagent is added (12 uL to plate and components diluted in parts as per kit instructions) and the plate is further incubated for 1 hour in the dark. The plate is read via luminescence on the Perkin Elmer Envision.

TrkA receptor, sequence (P04629 33-796): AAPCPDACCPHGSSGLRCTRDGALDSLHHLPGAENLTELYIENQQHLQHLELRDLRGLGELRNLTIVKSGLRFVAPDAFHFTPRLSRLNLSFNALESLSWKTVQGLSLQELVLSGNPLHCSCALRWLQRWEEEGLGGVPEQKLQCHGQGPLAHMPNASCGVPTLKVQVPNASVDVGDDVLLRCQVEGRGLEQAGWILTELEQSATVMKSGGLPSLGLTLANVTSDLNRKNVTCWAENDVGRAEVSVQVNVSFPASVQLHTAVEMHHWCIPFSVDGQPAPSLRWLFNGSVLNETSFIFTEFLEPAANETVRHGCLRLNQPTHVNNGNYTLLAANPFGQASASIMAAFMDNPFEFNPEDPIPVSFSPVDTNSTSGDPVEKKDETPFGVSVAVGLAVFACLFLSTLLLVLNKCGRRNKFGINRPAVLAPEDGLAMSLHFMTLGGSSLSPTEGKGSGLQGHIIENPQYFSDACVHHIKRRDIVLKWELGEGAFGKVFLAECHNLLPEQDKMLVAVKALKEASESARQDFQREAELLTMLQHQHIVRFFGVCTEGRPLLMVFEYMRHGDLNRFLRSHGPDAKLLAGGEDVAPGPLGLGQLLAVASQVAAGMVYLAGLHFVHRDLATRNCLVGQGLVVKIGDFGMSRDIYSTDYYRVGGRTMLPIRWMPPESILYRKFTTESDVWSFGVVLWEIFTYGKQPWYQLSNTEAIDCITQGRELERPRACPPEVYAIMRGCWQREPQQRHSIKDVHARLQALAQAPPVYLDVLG

Row | Compound | IC50
1 | Cc1ccc(NC(=O)Nc2ccccn2)c(-c2ccccc2)n1 [Compound 12, 1-(6-methyl-2-phenylpyridin-3-yl)-3-pyridin-2-ylurea] | 1100 nM
2 | Cc1ncc(NC(=O)Nc2cnc(C)nc2-c2ccccc2)c(-c2ccccc2)n1 [Compound 17, 1,3-bis(2-methyl-4-phenylpyrimidin-5-yl)urea] | 1400 nM
3 | Cc1cc(NC(=O)Nc2ccccn2)n(-c2ccccc2)n1 [Compound 10, 1-(3-methyl-1-phenyl-1H-pyrazol-5-yl)-3-pyridin-2-ylurea] | 1800 nM
4 | O=C(Nc1c(-c2ccccc2)nc2ccccn12)Nc1c(-c2ccccc2)nc2ccc(Cl)nn12 [Compound 31, 1-(6-chloro-2-phenylimidazo[1,2-b]pyridazin-3-yl)-3-(2-phenylimidazo[1,2-a]pyridin-3-yl)urea] | 1000 nM
5 | O=C(NCc1ccccc1SC(F)(F)F)Nc1ccnn1-c1ccccc1 [Compound 44, 1-(1-phenyl-1H-pyrazol-5-yl)-3-{2-[(trifluoromethyl)sulfanyl]benzyl}urea] | 420 nM
